Laboratory results: article PMC4208292 (Bioorganic & medicinal chemistry letters, 2012)
“Also recorded” adds a separate entry of the source.

Legend:
FLT3(D835Y) = target: T1, FLT3(D835Y) (Homo sapiens, UniProt P36888, D835Y); test: Kinase-binding assay; details: 10 μM; KINOMEscan profile
T1 sequence (P36888 27-993 D835Y): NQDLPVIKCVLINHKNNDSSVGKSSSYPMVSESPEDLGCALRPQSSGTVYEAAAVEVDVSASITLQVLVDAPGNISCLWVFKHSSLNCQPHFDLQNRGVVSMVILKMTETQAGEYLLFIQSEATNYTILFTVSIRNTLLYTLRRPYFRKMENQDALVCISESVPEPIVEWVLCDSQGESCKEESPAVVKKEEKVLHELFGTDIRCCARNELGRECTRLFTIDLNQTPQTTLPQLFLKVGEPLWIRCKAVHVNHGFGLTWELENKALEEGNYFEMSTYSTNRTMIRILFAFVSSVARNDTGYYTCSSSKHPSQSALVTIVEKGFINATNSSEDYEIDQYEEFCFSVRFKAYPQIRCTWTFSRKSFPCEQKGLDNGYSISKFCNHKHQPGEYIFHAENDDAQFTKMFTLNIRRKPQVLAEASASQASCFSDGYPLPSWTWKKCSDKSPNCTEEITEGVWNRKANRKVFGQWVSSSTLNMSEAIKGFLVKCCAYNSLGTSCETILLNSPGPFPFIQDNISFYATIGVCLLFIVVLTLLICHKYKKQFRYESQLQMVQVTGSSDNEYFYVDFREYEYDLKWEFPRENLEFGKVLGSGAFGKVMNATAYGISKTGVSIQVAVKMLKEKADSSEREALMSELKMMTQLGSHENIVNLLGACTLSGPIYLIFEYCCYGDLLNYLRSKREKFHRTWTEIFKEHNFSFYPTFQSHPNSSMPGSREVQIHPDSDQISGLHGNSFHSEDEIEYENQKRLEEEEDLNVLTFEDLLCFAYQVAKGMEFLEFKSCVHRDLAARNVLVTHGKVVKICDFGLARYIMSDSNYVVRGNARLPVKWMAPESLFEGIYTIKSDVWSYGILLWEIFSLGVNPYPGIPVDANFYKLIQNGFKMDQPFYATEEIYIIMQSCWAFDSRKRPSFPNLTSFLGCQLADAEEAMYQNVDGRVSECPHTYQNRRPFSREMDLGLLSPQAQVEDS

[1] = Pharmacokinetic profile in mice; assay type: in vivo; details: male, Swiss Albino, mouse, brain, iv, 1 mg/kg
smMLCK = smMLCK (Homo sapiens, UniProt Q15746); test: Radioactivity-based enzymatic kinase panel; assay type: biochemical
[2] = target: T2, wild-type LRRK2 (GST-LRRK2(1326–2517)) (Homo sapiens, UniProt Q5S007); test: LRRK2 enzyme activity assay
T2 sequence (Q5S007 1326-2517): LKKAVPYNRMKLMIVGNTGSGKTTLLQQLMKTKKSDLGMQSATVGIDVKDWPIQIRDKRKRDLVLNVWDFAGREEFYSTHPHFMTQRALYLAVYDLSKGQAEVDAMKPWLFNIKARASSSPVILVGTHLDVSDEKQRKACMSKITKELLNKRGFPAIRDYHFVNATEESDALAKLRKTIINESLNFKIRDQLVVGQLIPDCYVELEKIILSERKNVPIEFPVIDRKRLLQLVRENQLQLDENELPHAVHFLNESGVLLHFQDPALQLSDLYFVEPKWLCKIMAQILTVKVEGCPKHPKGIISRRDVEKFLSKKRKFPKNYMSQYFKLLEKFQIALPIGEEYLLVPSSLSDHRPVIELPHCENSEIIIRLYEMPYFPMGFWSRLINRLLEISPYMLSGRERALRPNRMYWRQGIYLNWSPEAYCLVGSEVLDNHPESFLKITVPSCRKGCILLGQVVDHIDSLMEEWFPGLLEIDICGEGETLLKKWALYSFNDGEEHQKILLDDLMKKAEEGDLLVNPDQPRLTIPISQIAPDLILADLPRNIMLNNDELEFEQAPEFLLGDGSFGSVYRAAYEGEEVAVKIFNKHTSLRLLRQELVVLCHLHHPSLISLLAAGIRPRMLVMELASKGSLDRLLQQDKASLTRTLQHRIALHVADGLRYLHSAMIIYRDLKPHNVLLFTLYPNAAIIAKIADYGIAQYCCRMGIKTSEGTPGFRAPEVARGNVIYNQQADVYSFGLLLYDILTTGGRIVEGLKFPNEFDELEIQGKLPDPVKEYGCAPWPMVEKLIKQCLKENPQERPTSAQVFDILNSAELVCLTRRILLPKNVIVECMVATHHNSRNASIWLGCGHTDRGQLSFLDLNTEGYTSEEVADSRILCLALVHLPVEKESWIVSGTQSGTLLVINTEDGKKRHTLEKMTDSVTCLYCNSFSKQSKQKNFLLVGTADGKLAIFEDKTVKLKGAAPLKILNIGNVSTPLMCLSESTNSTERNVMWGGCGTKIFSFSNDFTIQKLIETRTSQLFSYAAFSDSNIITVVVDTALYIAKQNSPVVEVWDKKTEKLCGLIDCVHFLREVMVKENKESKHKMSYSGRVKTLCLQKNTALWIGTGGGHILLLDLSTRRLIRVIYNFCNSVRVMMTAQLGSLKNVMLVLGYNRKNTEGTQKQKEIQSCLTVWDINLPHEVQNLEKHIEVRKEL

ALK = ALK (Homo sapiens, UniProt Q9UM73); test: Kinase-binding assay; details: 10 μM; KINOMEscan profile
GFP-LRRK2[A2016T] = GFP-LRRK2[A2016T] (Homo sapiens, UniProt Q5S007, A2016T); test: Ser910/Ser935 phosphorylation immunoblot in stably transfected HEK293 cells; details: 90 min
LRRK2 = LRRK2 (Mus musculus, UniProt Q5S006); test: Pharmacodynamic study of LRRK2 Ser910/Ser935 phosphorylation in mouse tissues; assay type: in vivo; details: intraperitoneal 100 mg/kg, normal mice
Sequence of LRRK2 (Q5S006 whole entry): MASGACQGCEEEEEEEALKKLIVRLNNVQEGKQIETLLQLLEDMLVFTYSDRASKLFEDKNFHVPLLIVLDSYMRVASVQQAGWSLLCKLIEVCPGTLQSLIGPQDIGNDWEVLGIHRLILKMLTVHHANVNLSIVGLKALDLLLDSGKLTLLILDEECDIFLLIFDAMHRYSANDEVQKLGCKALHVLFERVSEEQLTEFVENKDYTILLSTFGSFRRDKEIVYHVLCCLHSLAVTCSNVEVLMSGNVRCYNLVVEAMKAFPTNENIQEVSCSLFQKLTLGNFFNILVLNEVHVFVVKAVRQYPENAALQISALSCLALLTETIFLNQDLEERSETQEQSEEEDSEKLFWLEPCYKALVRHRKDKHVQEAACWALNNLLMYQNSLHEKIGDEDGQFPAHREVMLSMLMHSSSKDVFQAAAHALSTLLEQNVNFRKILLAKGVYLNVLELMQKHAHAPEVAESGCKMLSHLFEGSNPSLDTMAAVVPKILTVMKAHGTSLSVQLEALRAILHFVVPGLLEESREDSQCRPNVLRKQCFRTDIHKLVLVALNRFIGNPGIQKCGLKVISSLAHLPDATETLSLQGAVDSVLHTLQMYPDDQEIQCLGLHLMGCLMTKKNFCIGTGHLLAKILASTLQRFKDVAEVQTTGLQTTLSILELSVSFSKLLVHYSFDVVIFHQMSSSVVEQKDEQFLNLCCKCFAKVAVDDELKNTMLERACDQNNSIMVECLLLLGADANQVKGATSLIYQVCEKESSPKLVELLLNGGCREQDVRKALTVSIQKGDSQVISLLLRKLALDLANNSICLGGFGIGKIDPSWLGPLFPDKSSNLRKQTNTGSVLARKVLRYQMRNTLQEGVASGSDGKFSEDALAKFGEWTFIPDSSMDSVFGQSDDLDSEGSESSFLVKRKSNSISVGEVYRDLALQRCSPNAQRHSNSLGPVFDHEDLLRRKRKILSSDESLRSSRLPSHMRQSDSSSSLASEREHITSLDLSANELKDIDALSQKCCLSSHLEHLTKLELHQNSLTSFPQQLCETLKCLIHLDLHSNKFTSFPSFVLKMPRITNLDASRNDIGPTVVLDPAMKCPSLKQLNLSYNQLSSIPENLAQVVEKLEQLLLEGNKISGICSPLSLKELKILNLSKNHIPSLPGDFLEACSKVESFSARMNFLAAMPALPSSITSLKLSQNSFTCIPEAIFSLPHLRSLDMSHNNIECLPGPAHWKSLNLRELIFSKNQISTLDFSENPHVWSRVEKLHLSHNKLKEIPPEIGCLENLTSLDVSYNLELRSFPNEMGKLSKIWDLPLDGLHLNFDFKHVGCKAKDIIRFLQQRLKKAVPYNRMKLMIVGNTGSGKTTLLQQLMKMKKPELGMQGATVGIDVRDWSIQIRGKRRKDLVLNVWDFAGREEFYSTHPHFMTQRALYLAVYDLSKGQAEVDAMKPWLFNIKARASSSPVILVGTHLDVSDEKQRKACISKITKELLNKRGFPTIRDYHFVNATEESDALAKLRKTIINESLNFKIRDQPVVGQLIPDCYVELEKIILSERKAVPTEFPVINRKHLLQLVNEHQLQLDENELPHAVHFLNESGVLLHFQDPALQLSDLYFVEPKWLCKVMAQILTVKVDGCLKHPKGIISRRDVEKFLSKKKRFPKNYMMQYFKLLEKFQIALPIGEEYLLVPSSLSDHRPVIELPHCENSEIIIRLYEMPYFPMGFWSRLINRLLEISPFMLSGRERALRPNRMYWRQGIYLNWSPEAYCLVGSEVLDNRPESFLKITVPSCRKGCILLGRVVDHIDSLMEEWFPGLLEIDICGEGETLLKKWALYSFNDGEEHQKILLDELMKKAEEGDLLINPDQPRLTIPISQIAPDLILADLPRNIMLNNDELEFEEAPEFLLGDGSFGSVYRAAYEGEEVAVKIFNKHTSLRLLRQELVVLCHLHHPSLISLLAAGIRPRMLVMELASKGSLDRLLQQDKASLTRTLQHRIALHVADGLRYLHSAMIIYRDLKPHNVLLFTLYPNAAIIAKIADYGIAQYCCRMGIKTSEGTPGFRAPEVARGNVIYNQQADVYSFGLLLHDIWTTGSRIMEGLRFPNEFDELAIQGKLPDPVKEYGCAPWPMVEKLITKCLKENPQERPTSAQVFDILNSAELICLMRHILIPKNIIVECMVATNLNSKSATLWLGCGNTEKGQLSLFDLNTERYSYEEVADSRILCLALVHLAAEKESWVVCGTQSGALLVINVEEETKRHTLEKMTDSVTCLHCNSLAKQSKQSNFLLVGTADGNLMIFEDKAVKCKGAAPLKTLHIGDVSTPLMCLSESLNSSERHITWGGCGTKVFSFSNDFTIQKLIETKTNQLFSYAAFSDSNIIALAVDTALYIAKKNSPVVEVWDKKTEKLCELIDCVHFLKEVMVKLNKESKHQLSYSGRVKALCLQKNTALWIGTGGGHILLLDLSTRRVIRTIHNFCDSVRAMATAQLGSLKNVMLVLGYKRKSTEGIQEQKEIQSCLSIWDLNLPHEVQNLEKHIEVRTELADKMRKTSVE

Sequence of ALK (Q9UM73 19-1620, species assumed): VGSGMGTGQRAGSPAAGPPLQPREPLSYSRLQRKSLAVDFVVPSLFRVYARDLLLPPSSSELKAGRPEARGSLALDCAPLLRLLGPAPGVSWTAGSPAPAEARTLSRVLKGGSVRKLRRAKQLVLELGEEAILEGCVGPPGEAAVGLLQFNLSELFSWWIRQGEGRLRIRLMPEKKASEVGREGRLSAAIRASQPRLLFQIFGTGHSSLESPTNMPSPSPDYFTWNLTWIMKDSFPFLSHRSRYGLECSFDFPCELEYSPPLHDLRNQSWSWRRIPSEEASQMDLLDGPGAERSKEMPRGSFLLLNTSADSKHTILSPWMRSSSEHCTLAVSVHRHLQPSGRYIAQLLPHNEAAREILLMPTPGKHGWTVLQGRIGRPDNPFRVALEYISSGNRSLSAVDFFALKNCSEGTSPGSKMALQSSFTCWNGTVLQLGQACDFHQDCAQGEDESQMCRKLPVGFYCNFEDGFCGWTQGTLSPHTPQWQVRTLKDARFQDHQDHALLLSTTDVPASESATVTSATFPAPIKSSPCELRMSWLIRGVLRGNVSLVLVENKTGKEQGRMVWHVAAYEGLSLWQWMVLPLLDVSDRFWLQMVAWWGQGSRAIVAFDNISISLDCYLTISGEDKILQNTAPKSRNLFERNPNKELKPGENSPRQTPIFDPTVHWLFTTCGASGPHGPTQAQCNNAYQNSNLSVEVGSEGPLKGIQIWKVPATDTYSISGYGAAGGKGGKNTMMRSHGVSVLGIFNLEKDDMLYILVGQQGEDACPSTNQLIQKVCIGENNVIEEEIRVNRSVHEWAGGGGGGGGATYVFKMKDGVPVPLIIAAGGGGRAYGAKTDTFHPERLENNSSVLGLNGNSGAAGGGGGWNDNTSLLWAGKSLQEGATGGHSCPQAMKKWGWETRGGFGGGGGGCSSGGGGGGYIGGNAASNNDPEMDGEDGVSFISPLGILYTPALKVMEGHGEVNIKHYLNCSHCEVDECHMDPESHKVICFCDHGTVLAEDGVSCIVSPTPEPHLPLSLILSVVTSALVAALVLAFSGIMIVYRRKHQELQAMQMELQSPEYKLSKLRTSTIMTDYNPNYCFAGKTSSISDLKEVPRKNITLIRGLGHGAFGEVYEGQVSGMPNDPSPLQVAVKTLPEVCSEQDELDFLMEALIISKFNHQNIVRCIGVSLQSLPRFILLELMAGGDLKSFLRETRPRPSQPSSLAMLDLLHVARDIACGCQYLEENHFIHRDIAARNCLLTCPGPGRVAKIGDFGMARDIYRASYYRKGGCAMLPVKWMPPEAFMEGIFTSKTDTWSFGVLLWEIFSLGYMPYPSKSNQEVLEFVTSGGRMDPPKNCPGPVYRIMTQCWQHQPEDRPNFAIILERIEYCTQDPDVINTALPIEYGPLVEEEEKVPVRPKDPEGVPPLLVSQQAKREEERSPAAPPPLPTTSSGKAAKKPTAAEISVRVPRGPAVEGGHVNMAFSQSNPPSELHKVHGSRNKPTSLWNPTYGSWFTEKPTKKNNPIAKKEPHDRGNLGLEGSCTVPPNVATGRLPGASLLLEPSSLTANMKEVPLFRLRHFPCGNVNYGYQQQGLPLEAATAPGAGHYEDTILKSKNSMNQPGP

ambit score (FLT3(D835Y)): < 10
clearance [1]: 22.1 mL/min/kg
inhibition at 10 µM (smMLCK): > 50%
IC50 [2]: ~10 nM
ambit score (ALK): < 10
concentration inducing dephosphorylation of Ser910 and 935 (GFP-LRRK2[A2016T]): 1 to 3 µM
Structure (SMILES): O=C(Nc1cccnc1)c1cc(-c2ccnc(F)c2)ccc1OCc1ccccc1 [GSK2578215A, 2-(benzyloxy)-5-(2-fluoropyridin-4-yl)-N-(pyridin-3-yl)benzamide]
inhibition of LRRK2 Ser910 or Ser935 phosphorylation in brain (LRRK2; brain): no inhibition; also recorded: failed to induce significant inhibition
Ser910 and Ser935 dephosphorylation of LRRK2 in kidney (LRRK2; kidney): complete Ser910 and Ser935 dephosphorylation
Ser910 and Ser935 dephosphorylation of LRRK2 in spleen (LRRK2; spleen): complete Ser910 and Ser935 dephosphorylation
